This note sets out measurements from ChEMBL document CHEMBL4257547, “Chemical modulation of transcription factors” (Medchemcomm, 2018).

pIC50, pKi: −log10 of the molar value.

The target of data set [1] is Bromodomain-containing protein 4 (Homo sapiens, UniProt O60885). The data set can be described thus: Inhibition of human His-tagged BRD4 expressed in Escherichia coli BL21(DE3)-R3-pRARE2 cells preincubated for 30 mins followed by biotinylated acetyl-histone addition and measured after 30 mins by AlphaScreen method. Background: Alpha assays give light when donor and acceptor beads are brought close together.

The species named for another data set is Homo sapiens. The data set can be described thus: Selectivity ratio of IC50 for inhibition of recombinant His6-tagged human Max homodimer/HEX-tagged double-stranded oligonucleotide complex formation to IC50 for inhibition of recombinant His6-tagged bHLH-LZ domain of human Myc/His6-tagged human Max/HEX-tagged double-stranded oligonucleotide complex formation.

Data set [2] is described as follows: Inhibition of [32P]-labeled CREB KID (unknown origin) binding to GST-fused mouse CBP KIX domain preincubated with GST-fused CBP for 15 mins followed by CREB addition and measured after 30 mins by SDS-gel electrophoresis/autoradiographic method. Further details: species or system Homo sapiens.
Data set [3] is described as follows: Protein binding in mouse plasma after 4 hrs by rapid equilibrium dialysis method. The data set is classed as ADME, cell-free. The settings on record: read-out: PPB.
For data set [4], the target named is Mitogen-activated protein kinase kinase kinase 14 (Homo sapiens, UniProt Q99558). The data set can be described thus: Inhibition of NIK (unknown origin) by HTRF method. In general terms: TR-FRET usually uses a lanthanide donor and a delayed reading to cut background.
Chain of Mitogen-activated protein kinase kinase kinase 14 (Q99558 whole entry): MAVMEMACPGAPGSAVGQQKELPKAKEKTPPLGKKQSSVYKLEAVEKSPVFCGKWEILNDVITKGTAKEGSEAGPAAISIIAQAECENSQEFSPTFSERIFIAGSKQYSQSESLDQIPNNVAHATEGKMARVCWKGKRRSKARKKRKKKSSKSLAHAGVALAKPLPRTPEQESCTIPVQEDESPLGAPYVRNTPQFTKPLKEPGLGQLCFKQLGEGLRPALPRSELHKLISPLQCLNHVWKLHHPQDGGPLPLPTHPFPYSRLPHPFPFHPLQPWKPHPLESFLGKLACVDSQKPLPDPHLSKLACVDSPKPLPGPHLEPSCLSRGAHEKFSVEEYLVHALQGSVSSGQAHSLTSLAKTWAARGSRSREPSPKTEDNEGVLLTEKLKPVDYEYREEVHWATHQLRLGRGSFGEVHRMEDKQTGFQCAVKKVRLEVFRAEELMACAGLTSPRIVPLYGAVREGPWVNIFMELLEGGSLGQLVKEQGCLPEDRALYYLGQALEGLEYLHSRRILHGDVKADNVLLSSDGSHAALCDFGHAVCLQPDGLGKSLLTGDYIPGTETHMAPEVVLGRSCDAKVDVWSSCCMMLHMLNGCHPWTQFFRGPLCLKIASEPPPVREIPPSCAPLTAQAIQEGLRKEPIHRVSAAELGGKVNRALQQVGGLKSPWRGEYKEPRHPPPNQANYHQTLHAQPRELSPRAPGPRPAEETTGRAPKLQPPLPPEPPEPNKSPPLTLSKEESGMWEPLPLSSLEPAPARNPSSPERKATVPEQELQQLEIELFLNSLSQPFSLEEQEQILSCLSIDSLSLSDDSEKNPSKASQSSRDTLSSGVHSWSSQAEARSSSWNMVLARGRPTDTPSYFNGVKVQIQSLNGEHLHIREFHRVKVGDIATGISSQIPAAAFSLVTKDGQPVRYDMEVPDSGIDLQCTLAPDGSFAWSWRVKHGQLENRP
The next data set has as its system B16-F10. The data set can be described thus: Cytotoxicity against mouse B16F10 cells assessed as decrease in cell viability after 24 hrs by MTT assay. In kind it is functional, cell-based. The note with it: B16-F10, 24 h. (In general: Tetrazolium dyes change colour on reduction, which living cells bring about.)

Broadly, the pIC50 is −log10 of the IC50, conventionally taken in molar units. In turn, `Cc1nnn2c1-c1ccc(-c3cc[nH]n3)cc1C(c1ccc(Cl)cc1)=NC2` showed a pIC50 in data set [1] of 8.70.

`COC(=O)c1ccc(Nc2ccc([N+](=O)[O-])c3nonc23)c(-c2ccc(C)cc2)c1`: in the data set listed under Homo sapiens, the Ratio IC50 came to 2.

In turn, `Cc1nnn2c1-c1ccc(-c3ccc(N)nc3)cc1C(c1ccc(Cl)cc1)=NC2` showed a pIC50 in data set [1] of 8.22.

In turn, `O=C(Nc1ccc(Cl)cc1)c1cc2ccccc2cc1OP(=O)(O)O` showed a pIC50 in data set [2] of 4.05.

Take `COc1ccc(C2=Nn3c(nnc3-c3cc(-c4ccc(Cl)cc4)n[nH]3)SC2C)cc1` (configuration not stated): in data set [3], the fraction unbound at 4 h is below 0.001.

A word on the pKi: it is the negative decadic logarithm of the Ki, by convention in mol/L. With `C[C@](O)(C#Cc1ccc2ncc(-c3nc(N)ncc3Cl)n2c1)c1nccs1`, the negative logarithm of the Ki (pKi) in data set [4] is 9.52.

`CC(C)(O)/C=C/C(=O)[C@@](C)(O)[C@H]1C(O)C[C@@]2(C)[C@@H]3CC=C4[C@@H](C=C(O)C(=O)C4(C)C)[C@]3(C)CC[C@]12C` (some centres not stated): the negative-log IC50 (pIC50) in the data set on B16-F10 is 5.00.
